# Read-outs that look alike come from different tables or passages of the source.
# Tests used:
# [1] = Lipophilicity, ALogD at pH 7.4; format: physicochemical
# [2] = Hepatocyte stability assay, cynomolgus monkey; format: in vitro ADME; conditions: hepatocytes
# Experimental: (§1) Example 7. In Vitro Metabolic Stability of Isoxazoline Compounds in cd-1 Mouse, sd Rat, Beagle Dog, Cynomolgus Monkey and Human Cryopreserved Hepatocytes
# (§2) Isoxazoline compounds (at 1 μM) were incubated with cryopreserved hepatocytes (0.5×10^6 cells per mL) in duplicates (n=2) at 37° C. using 96-well plate format.
# (§3) Time points were 0, 15, 30, 60 and 90 minutes in separate plates and medium control samples without cells at 0 and 90 minutes were also incubated. At each time point the reaction was stopped by adding organic solution containing internal standard (IS).
# (§4) Positive controls 7-ethoxycoumarin and 7-hydroxycoumarin were included in parallel.
# (§5) The samples were analyzed by LC-MS/MS. Disappearance of the test compound was assessed based on peak area ratios of analyte/IS (no standard curve).
# (§6) Intrinsic clearance and t½ values were then calculated.
# CYP 2C19 = molecular target: T1, CYP 2C19 (Homo sapiens, UniProt P33261); experiment: Reversible CYP inhibition in human liver microsomes, CYP 2C19; format: in vitro ADME; conditions: S-mephenytoin, read-out: Cyp microsome IC50, 2C19
# T1 construct: individual CYPs in a pool of human liver microsomes; from tissue; host or cells: pooled human liver microsomes
# Experimental: (§7) Reversible inhibition of cytochrome P450s (CYPs) in human liver microsomes was tested using prototypical, isoform-selective activity assays for individual CYPs in a pool of human liver microsomes (i.e., testosterone for CYP 3A4, phenacetin for CYP 1A2, bufuralol for CYP 2D6, S-mephenytoin for CYP 2C19, and diclofenac for CYP 2C9). The assay provides 8-point IC50 determinations in the range of 0.010 to 50 μM drug concentrations for major isoforms of CYP450.
# [3] = Plasma protein binding (equilibrium dialysis), dog; format: in vitro ADME; conditions: 2 μM
# Experimental: (§8) Frozen plasma (EDTA-K2 as anticoagulant) pooled from multiple individuals of various species was used as a test matrix. The plasma was purchased from commercial vendors or prepared in house from animals. Warfarin was used as a positive control.
# (§9) Isoxazoline compounds were spiked into the blank matrix at the final concentration of 2 μM.
# (§10) A 150 μL aliquot of matrix sample was added to one side of the chamber in a 96-well equilibrium dialyzer plate (HTD dialysis) and an equal volume of dialysis buffer was added to the other side of the chamber. An aliquot of matrix sample was harvested before the incubation and used as T0 samples for recovery calculation. Triplicate incubations were performed.
# (§11) The dialyzer plate was placed in a humidified incubator and rotated slowly for 4 hours at 37° C. After incubation, samples were taken from the matrix side as well as the buffer side. The plasma sample was matched with equal volume of blank buffer; and buffer samples were matched with equal volume of blank plasma. The matrix-matched samples were quenched with a stop solution containing internal standard.
# (§12) The samples were analyzed by LC-MS/MS.
# (§13) Then, % bound fraction at 4 hours (% bound=1−% unbound) and % recovery in incubates at 4 hours were calculated.
# (§14) The stability of compounds in mouse (ms), rat (r), dog (d), cynomolgus monkey (cy), and human (hu) plasma is shown in Table 10 by the percentages of compounds remaining at two hours.
# [4] = Plasma protein binding (equilibrium dialysis), mouse; format: in vitro ADME; conditions: 2 μM
# Experimental: as §8, §9, §10, §11, §12, §13, §14
# [5] = Hepatocyte stability assay, rat; format: in vitro ADME; conditions: SD, hepatocytes
# Experimental: as §1, §2, §3, §4, §5, §6
# CYP 1A2 = molecular target: T2, CYP 1A2 (Homo sapiens, UniProt P05177); experiment: Reversible CYP inhibition in human liver microsomes, CYP 1A2; format: in vitro ADME
# T2 construct: individual CYPs in a pool of human liver microsomes; from tissue; host or cells: pooled human liver microsomes
# T2 sequence (P05177 1-516): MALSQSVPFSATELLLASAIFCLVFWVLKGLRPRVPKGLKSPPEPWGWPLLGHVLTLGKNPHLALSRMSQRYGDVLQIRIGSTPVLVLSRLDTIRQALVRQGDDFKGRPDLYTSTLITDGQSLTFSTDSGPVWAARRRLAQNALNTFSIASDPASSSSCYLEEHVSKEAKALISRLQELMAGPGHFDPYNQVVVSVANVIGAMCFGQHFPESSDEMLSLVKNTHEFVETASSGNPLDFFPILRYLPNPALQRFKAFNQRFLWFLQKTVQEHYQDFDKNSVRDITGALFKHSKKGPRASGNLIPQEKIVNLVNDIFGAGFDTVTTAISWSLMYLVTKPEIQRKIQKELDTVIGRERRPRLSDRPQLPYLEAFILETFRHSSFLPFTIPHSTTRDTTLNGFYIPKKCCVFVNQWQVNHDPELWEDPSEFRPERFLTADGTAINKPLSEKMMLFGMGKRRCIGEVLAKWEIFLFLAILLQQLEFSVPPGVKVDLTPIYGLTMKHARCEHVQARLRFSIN
# Experimental: as §7
# CYP 2D6 = molecular target: T3, CYP 2D6 (Homo sapiens, UniProt P10635); experiment: Reversible CYP inhibition in human liver microsomes, CYP 2D6; format: in vitro ADME; conditions: bufuralol, read-out: Cyp microsome IC50, 2D6
# T3 construct: individual CYPs in a pool of human liver microsomes; from tissue; host or cells: pooled human liver microsomes
# Experimental: as §7
# [6] = Bidirectional permeability in Caco-2 cells; format: in vitro ADME, human; conditions: for Papp B→A at 2 h, 2 μM / Papp A→B at 2 h, 2 μM: human, Caco-2, pH 7.4
# Experimental: The suitability of the compound for oral dosing was evaluated via a Caco-2 permeability assay to predict human intestinal permeability and to investigate drug efflux. Afoxolaner racemate was evaluated for P-glycoprotein (PGP) inhibition in a MDCK permeability assay.
# Caco-2 Cells (obtained from ATCC) were seeded onto PET membranes of 96-well Insert Plates for 21-28 days for confluent cell monolayer formation. The integrity of the monolayer was verified by performing Lucifer yellow rejection assay. The quality of the monolayer was also verified by measuring the unidirectional (A→B) permeability of fenoterol/nadolol (low permeability marker), propranolol/metoprolol (high permeability marker) and Bi-directional permeability of Digoxin (a P-glycoprotein substrate marker) in duplicate wells.
# Standard assay conditions are as follows: each test compound was tested at 2 μM (DMSO≤1%) with two replicates; bi-directional transport was evaluated (A→B and B→A); incubation was for 2 hours with a single time point; the transport buffer contained HBSS with 10 mM HEPES at pH7.40±0.05; and incubation occurred at 37±1° C., 5% CO2 and relatively saturated humidity. The dosing solution was spiked and mixed with transport buffer and Stop Solution (containing an appropriate internal standard (IS)) to provide the T0 sample. At the end of incubation, sample solutions from both donor and receiver wells were immediately mixed with Stop Solution. All samples, including T0 samples, donor samples, and receiver samples, were analyzed using LC/MS/MS. Concentrations of test compound are expressed as peak area ratio of analytes versus IS without a standard curve.
# CYP 2C9 = molecular target: T4, CYP 2C9 (Homo sapiens, UniProt P11712); experiment: Reversible CYP inhibition in human liver microsomes, CYP 2C9; format: in vitro ADME; conditions: diclofenac, read-out: Cyp microsome IC50, 2C9
# T4 construct: individual CYPs in a pool of human liver microsomes; from tissue; host or cells: pooled human liver microsomes
# Experimental: as §7
# [7] = Hepatocyte stability assay, human; format: in vitro ADME; conditions: hepatocytes
# Experimental: as §1, §2, §3, §4, §5, §6
# [8] = cynomolgus monkey (cy), 1 μM, read-out: Hepatocyte stability (t½)
# [9] = rat (r), 1 μM, read-out: Hepatocyte stability (t½)
# [10] = B→A, 2 μM, 2 hours, read-out: Caco2 B-A
# [11] = human (hu), 1 μM, read-out: Hepatocyte stability (t½)
# T4 sequence (P11712 whole entry): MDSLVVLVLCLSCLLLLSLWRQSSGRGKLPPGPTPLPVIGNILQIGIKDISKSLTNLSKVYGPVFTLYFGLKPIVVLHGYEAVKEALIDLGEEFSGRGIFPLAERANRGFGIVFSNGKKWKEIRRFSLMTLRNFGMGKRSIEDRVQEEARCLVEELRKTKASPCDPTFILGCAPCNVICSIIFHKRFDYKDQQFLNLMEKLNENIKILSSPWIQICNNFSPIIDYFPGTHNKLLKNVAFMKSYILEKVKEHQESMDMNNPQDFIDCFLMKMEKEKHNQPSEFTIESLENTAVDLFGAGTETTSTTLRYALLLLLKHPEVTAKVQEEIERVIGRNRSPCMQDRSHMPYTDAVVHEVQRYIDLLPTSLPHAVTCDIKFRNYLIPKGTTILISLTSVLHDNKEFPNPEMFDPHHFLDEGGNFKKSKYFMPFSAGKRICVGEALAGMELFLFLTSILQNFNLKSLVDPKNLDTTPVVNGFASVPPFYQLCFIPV
# T1 sequence (P33261 whole entry): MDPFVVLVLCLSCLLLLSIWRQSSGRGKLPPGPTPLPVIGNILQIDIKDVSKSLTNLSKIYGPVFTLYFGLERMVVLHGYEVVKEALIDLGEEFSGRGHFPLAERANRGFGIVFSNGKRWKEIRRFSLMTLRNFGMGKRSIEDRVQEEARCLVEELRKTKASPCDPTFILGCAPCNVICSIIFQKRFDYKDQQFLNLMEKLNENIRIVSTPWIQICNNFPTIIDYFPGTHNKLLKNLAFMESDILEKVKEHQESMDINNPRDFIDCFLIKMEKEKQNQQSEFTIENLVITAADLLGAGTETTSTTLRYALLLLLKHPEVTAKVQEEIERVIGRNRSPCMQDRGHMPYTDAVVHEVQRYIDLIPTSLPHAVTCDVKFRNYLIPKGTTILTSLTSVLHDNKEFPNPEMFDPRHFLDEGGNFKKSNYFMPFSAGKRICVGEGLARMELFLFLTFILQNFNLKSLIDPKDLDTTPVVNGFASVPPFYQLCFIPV
# T3 sequence (P10635 whole entry): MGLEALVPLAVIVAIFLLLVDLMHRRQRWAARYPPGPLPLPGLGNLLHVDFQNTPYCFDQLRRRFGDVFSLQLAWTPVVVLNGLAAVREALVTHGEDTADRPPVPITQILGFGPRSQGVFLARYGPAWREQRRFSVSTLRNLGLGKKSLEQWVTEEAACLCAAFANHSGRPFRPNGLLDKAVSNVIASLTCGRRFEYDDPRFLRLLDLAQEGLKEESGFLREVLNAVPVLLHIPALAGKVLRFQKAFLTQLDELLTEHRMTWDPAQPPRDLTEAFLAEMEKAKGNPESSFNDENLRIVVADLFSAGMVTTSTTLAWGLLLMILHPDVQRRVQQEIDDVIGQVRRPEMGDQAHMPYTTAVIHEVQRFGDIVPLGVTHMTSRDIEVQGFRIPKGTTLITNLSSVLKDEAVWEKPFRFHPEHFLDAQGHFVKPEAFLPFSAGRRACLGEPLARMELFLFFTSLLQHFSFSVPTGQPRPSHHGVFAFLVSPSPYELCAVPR
SMILES,ALogD (pH 7.4) [1],"half-life at 1 μM [2, 8]",IC50 (CYP 2C19),"Plasma protein % binding ([3]; dog (d), 4 hours)","Plasma protein % binding ([4]; mouse (ms), 4 hours)","half-life at 1 μM [5, 9]",IC50 (CYP 1A2),IC50 (CYP 2D6),"Papp B→A at 2 h, 2 μM [6, 10]",IC50 (CYP 2C9),"half-life at 1 μM [7, 11]",further results
"O=C(CNC(=O)c1ccc(C2=NO[C@](c3cc(Cl)cc(C(F)(F)F)c3)(C(F)(F)F)C2)c2ccccc12)NCC(F)(F)F (racemic) [Afoxolaner, afoxolaner]",6.1,> 3.62 h,3.1 µM,">99.9 (d, hu) %","97.8 (ms), %",> 3.62 h,> 50 µM,> 50 µM,0.24 ×10⁻⁶ cm/s,2.9 µM,> 3.62 h,"Caco2 A-B ([6]; A→B, 2 μM, 2 hours): <0.0003/ 10^−6 cm/sec"
"O=C(CNC(=O)c1ccc(C2=NO[C@@](c3cc(Cl)cc(Cl)c3)(C(F)(F)F)C2)c2ccccc12)NCC(F)(F)F [(S)-4-(5-(3,5-dichlorophenyl)-5-(trifluoromethyl)-4,5-dihydroisoxazol-3-yl)-N-(2-oxo-2-((2,2,2-trifluoroethyl)amino)ethyl)-1-naphthamide]",5.8,,0.6 µM,,,,,17.2 µM,,1.9 µM,,"half-life at 1 μM ([2]; cynomolgus monkey): 0.7 h; Plasma protein % binding ([3]; dog, 4 h): >99.9% (ms, r, d, hu); Plasma protein % binding ([4]; mouse, 4 h): >99.9% (ms, r, d, hu); half-life at 1 μM ([5]; rat): 1.28 h; IC50 (CYP 1A2; human liver microsomes, phenacetin, read-out: Cyp microsome IC50, 1A2): > 50 µM; Papp A→B at 2 h, 2 μM [6]: < 0.29 ×10⁻⁶ cm/s; Papp B→A at 2 h, 2 μM [6]: 0.56 ×10⁻⁶ cm/s; half-life at 1 μM ([7]; human): 1.05 h"
O=C(CNC(=O)c1ccc(C2=NO[C@@](c3cc(Cl)cc(C(F)(F)F)c3)(C(F)(F)F)C2)c2ccccc12)NCC(F)(F)F [(S)-afoxolaner],6.1,0.833 h,1.1 µM,99.5 (d) %,">99.9 (ms, r, hu), %",1 h,> 50 µM,19 µM,0.7 ×10⁻⁶ cm/s,4.2 µM,1.1 h,"Papp A→B at 2 h, 2 μM ([6]; A→B, 2 μM, 2 hours, read-out: Caco2 A-B): < 0.2 ×10⁻⁶ cm/s"
